From PMC5430895 (Scientific Reports, 2017) come the findings set out here.

Data set [1] relates to WT-HEK293 cells. Kind of data set: Saracatinib uptake in WT-HEK293 cells (HPLC-UV). The following applies: WT-HEK293, 10 µM saracatinib, 10 min.
In data set [2] the target is T1, hOCTN1 (Homo sapiens, UniProt Q9H015).
T1 sequence (Q9H015 1-551): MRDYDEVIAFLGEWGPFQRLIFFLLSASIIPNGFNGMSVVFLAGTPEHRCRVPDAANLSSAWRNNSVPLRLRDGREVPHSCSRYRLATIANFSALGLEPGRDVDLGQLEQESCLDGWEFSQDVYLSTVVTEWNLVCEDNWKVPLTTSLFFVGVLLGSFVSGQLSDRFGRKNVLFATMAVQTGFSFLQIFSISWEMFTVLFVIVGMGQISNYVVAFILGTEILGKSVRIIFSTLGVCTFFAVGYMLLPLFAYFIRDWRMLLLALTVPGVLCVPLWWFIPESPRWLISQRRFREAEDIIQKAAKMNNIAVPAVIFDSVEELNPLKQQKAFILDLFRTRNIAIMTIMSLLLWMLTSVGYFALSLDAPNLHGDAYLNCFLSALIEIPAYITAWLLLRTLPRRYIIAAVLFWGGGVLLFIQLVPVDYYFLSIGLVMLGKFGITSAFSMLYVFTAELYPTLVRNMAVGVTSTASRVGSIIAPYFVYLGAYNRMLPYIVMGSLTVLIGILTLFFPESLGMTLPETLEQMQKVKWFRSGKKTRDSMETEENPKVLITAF
Kind of data set: Saracatinib uptake in hOCTN1-overexpressing HEK293 cells (HPLC-UV).
Description: Twenty-four hours before starting experiments hOCTN1 expression was induced by 1 mg/l doxycycline (Sigma-Aldrich, Steinheim, Germany). Cells were grown at standard conditions. […] Cell number was evaluated with a CASEYTT cell counter (Roche Innovatis, Reutlingen, Germany).
After incubation, cells were washed with ice-cold PBS and hypoosmotic lysis was induced with 0.1% formic acid. […] The mobile phase consisted of (A) acetonitrile with 0.1% formic acid and (B) 0.1% formic acid and was delivered at 0.3 ml/min in a gradient program. After delivering 100% B for 3 min, a linear gradient to 100% A was applied within 7 min and maintained for 5 min. Thereafter, in order to re-equilibrate the column, a simple isocratic elution step with 100% eluent B was applied for at least 6 min. […] Separation was carried out on an Accucore C18 column equipped with a C18 guard column. The data were acquired by ChromQuest 5.0 chromatography software.

Data set [3] has as its target T2, hOCT3 (Homo sapiens, UniProt O75751).
T2 sequence (O75751 1-556): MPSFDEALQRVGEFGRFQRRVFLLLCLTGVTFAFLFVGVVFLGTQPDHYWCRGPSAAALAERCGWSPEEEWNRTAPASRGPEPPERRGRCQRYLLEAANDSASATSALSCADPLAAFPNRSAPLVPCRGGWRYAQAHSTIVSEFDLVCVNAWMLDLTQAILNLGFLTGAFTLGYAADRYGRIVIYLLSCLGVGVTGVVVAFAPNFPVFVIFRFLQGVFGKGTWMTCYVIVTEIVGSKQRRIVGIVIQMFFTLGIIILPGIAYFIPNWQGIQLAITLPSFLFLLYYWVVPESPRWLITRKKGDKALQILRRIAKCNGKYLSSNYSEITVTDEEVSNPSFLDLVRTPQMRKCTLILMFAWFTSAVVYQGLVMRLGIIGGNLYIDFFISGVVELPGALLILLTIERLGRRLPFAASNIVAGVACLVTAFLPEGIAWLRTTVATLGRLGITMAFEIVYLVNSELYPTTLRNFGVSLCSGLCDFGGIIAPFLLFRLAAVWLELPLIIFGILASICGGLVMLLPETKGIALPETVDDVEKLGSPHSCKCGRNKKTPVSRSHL
Description: Saracatinib uptake in hOCT3-overexpressing HEK293 cells (HPLC-UV). The following applies: hOCT3-HEK293, 10 µM saracatinib, 10 min, difference of accumulation at 4 °C and 37 °C.

Data set [4] has as its target T3, hOCT2 (Homo sapiens, UniProt O15244).
T3 sequence (O15244 1-555): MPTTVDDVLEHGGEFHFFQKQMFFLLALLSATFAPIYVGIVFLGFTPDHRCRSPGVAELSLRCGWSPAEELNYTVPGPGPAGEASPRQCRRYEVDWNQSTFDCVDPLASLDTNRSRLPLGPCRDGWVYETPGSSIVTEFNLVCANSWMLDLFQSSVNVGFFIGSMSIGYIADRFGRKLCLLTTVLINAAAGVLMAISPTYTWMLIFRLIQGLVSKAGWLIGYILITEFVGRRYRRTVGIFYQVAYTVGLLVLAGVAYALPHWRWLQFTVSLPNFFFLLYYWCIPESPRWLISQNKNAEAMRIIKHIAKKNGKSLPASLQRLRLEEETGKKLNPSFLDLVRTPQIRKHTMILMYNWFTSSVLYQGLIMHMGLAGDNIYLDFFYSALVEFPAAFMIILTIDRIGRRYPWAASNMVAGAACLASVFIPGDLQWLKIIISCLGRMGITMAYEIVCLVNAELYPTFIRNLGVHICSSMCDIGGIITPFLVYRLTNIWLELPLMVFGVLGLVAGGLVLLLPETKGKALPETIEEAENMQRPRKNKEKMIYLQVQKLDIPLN
Kind of data set: Inhibition of ASP+ uptake in hOCT2-HEK293 cells (apparent affinity). It is filed as cell-based. On the set-up: expressed in transfected cells; host or cells: HEK293. The following applies: hOCT2-HEK293, ASP+ 1 µM.

Data set [5] addresses T1, hOCTN1. Kind of data set: Saracatinib uptake in RASF after hOCTN1 siRNA knockdown. The class given is in vitro ADME. Also on record: expressed in transfected cells; host or cells: HEK293, expression induced with 1 mg/l doxycycline. To be noted: RASF 24 h post-transfection with hOCTN1 siRNA.
For data set [6], the target named is T4, hOCTN2 (Homo sapiens, UniProt O76082).
T4 sequence (O76082 1-557): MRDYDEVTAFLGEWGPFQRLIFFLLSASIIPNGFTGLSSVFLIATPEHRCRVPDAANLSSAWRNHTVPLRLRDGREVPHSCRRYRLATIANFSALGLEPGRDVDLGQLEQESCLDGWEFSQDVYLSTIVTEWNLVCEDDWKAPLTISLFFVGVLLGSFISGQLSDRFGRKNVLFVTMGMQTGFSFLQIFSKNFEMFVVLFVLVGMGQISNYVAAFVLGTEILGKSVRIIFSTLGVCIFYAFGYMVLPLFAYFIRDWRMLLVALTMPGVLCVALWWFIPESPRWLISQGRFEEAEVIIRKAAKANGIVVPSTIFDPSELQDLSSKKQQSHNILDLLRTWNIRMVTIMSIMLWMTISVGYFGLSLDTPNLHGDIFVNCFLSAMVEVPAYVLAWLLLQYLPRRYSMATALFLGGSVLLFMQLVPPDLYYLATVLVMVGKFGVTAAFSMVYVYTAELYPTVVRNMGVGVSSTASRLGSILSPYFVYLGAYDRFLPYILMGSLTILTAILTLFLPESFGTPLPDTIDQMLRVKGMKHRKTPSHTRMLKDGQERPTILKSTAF
Description: Saracatinib uptake in hOCTN2-expressing HEK293 cells (HPLC-UV). The following applies: hOCTN2-HEK293, 10 µM saracatinib, 10 min; not significantly different from WT.

In the case of `CN1CCN(CCOc2cc(OC3CCOCC3)c3c(Nc4c(Cl)ccc5c4OCO5)ncnc3c2)CC1` [saracatinib, N-(5-chloro-1,3-benzodioxol-4-yl)-7-[2-(4-methylpiperazin-1-yl)ethoxy]-5-(tetrahydro-2H-pyran-4-yloxy)quinazolin-4-amine], the “saracatinib accumulation (specific uptake)” value in data set [1] came to 1.8 ± 0.5 nmol/mg protein; in data set [2] (hOCTN1-HEK293, 10 µM saracatinib, 10 min, difference of accumulation at 4 °C and 37 °C), 9.3 ± 1.6 nmol/mg protein; in data set [3], 5.7 ± 0.1 nmol/mg protein; in data set [6] it was 3.8 ± 1.7 nmol/mg protein. Also, in data set [2] (hOCTN1-HEK293 cells), the “influence of extracellular pH on saracatinib uptake” value is “pH dependent”. Moreover, in data set [2] (hOCTN1-HEK293 cells, 10 µM saracatinib), the “time for which hOCTN1 mediated saracatinib accumulation is linear” value is “at least 15 min”. Also, the “maximum saracatinib uptake (Vmax)” value in data set [2] (hOCTN1-HEK293 cells, 10 min incubation) is 79.7 ± 5.2 nmol/mg protein. In addition, the IC50 in data set [4] was 900 nM. The compound further gave an uptake of saracatinib in data set [5] of 2.6 ± 0.8 nmol/mg protein. For the same compound, in data set [5], the “uptake of saracatinib, % remaining versus scramble siRNA” value turned out to be 26%.

As a reminder, the IC50 is the point on the concentration scale where inhibition reaches its midpoint.
